From PubChem BioAssay (NCI)
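Growth conditions: 96-well plates. Treatment: test compound, 48 hours, 5 concentrations. Analysis: linear interpolation between bracketing concentrations; unreached endpoints set to highest concentration. Here, GI50 denotes the concentration required for 50% inhibition of growth. Definition used: TGI = concentration required for complete inhibition of growth.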

Assays:
Assay in all cases: NCI anticancer screen, dose series, 48 h; in the data active = GI50 below about 0.43 µM; inactive = the rest
RPMI-8226 leukemia = tested on: RPMI-8226 leukemia
K-562 leukemia = tested on: K-562 leukemia
UACC-62 melanoma = tested on: UACC-62 melanoma
OVCAR-3 ovarian = tested on: OVCAR-3 ovarian
SR leukemia = tested on: SR leukemia
CAKI-1 renal = tested on: CAKI-1 renal
RXF 393 renal = tested on: RXF 393 renal
U251 CNS = tested on: U251 CNS
NCI-H460 lung = tested on: NCI-H460 lung
SK-MEL-2 melanoma = tested on: SK-MEL-2 melanoma

NOCC(=O)O
> 100 µM: TGI (RPMI-8226 leukemia) | TGI (K-562 leukemia) | TGI (UACC-62 melanoma) | TGI (OVCAR-3 ovarian) | TGI (SR leukemia) | TGI (CAKI-1 renal) | TGI (RXF 393 renal) | TGI (U251 CNS) | TGI (NCI-H460 lung) | TGI (SK-MEL-2 melanoma)
inactive: GI50 (RPMI-8226 leukemia) 58 µM | GI50 (K-562 leukemia) > 100 µM | GI50 (UACC-62 melanoma) 34.4 µM | GI50 (OVCAR-3 ovarian) > 100 µM | GI50 (SR leukemia) > 100 µM | GI50 (CAKI-1 renal) > 100 µM | GI50 (RXF 393 renal) > 100 µM | GI50 (U251 CNS) > 100 µM | GI50 (NCI-H460 lung) > 100 µM | GI50 (SK-MEL-2 melanoma) > 100 µM

O=C(/C=C/c1ccc(F)cc1)c1ccc(Cl)cc1Cl
73 µM: TGI (OVCAR-3 ovarian)
inactive: GI50 (RPMI-8226 leukemia) 17.5 µM | GI50 (K-562 leukemia) 33.9 µM | GI50 (UACC-62 melanoma) 39.8 µM | GI50 (OVCAR-3 ovarian) 25.8 µM | GI50 (SR leukemia) 26.4 µM | GI50 (CAKI-1 renal) 33 µM | GI50 (RXF 393 renal) 30.5 µM | GI50 (U251 CNS) 44.6 µM | GI50 (NCI-H460 lung) 65.6 µM | GI50 (SK-MEL-2 melanoma) > 100 µM
89.6 µM: TGI (CAKI-1 renal)
93.4 µM: TGI (RXF 393 renal)
> 100 µM: TGI (K-562 leukemia) | TGI (UACC-62 melanoma) | TGI (U251 CNS) | TGI (NCI-H460 lung) | TGI (SK-MEL-2 melanoma)
86.5 µM: TGI (SR leukemia)
39.5 µM: TGI (RPMI-8226 leukemia)

O=[N+]([O-])c1cccc(/C=N\NS(=O)(=O)c2ccc(Cl)cc2)c1O
60.5 µM: TGI (SR leukemia)
> 100 µM: TGI (RPMI-8226 leukemia) | TGI (K-562 leukemia) | TGI (UACC-62 melanoma) | TGI (OVCAR-3 ovarian) | TGI (CAKI-1 renal) | TGI (RXF 393 renal) | TGI (U251 CNS) | TGI (NCI-H460 lung) | TGI (SK-MEL-2 melanoma)

COc1ccc(CN(C)c2ccc(CO)c(Cl)c2)cc1
> 65.4 µM: TGI (RPMI-8226 leukemia)
> 100 µM: TGI (K-562 leukemia) | TGI (SR leukemia)
> 87.3 µM: TGI (U251 CNS)
2.24 µM: TGI (UACC-62 melanoma)
15 µM: TGI (NCI-H460 lung)
12.8 µM: TGI (OVCAR-3 ovarian)
inactive: GI50 (RPMI-8226 leukemia) 9.71 µM | GI50 (K-562 leukemia) 7.59 µM | GI50 (OVCAR-3 ovarian) 2.93 µM | GI50 (SR leukemia) 27 µM | GI50 (CAKI-1 renal) 3 µM | GI50 (RXF 393 renal) 10.9 µM | GI50 (U251 CNS) 4.05 µM | GI50 (NCI-H460 lung) 1.04 µM | GI50 (SK-MEL-2 melanoma) 8.37 µM
> 64.1 µM: TGI (CAKI-1 renal)
> 79.8 µM: TGI (RXF 393 renal)
38.7 µM: TGI (SK-MEL-2 melanoma)
active: GI50 (UACC-62 melanoma) 0.274 µM

O=C(Nc1cc(Cl)c(Cl)cc1Cl)C(=O)C1C=CCS1(=O)=O (stereo not given)
> 100 µM: TGI (RPMI-8226 leukemia) | TGI (K-562 leukemia) | TGI (UACC-62 melanoma) | TGI (OVCAR-3 ovarian) | TGI (SR leukemia) | TGI (CAKI-1 renal) | TGI (RXF 393 renal) | TGI (U251 CNS) | TGI (NCI-H460 lung) | TGI (SK-MEL-2 melanoma)

CC(=O)OCC1OC(N2C(=O)C(=O)c3cc(C)ccc32)C(OC(C)=O)C(OC(C)=O)C1OC(C)=O (stereo not given)
90.7 µM: TGI (RXF 393 renal)
70.1 µM: TGI (RPMI-8226 leukemia)
> 100 µM: TGI (K-562 leukemia) | TGI (UACC-62 melanoma) | TGI (OVCAR-3 ovarian) | TGI (CAKI-1 renal) | TGI (U251 CNS) | TGI (NCI-H460 lung) | TGI (SK-MEL-2 melanoma)
41.4 µM: TGI (SR leukemia)

COc1ccc(-c2onc(-c3ccc([N+](=O)[O-])cc3)c2C2=NCCN2)cc1
> 100 µM: TGI (RPMI-8226 leukemia) | TGI (K-562 leukemia) | TGI (UACC-62 melanoma) | TGI (OVCAR-3 ovarian) | TGI (SR leukemia) | TGI (CAKI-1 renal) | TGI (RXF 393 renal) | TGI (U251 CNS) | TGI (NCI-H460 lung) | TGI (SK-MEL-2 melanoma)

C=CC1(C(=O)O)CCC(C(C)(C)C)CC1 (stereo not given)
> 100 µM: TGI (RPMI-8226 leukemia) | TGI (K-562 leukemia) | TGI (UACC-62 melanoma) | TGI (OVCAR-3 ovarian) | TGI (SR leukemia) | TGI (CAKI-1 renal) | TGI (RXF 393 renal) | TGI (U251 CNS) | TGI (NCI-H460 lung) | TGI (SK-MEL-2 melanoma)

COc1cc2c(cc1OCCCOc1cc3c(cc1OC)C(=O)N1C[C@H](F)C[C@H]1C=N3)N=C[C@@H]1C[C@@H](F)CN1C2=O
4.46 µM: TGI (U251 CNS)
7.6 µM: TGI (RXF 393 renal)
20.1 µM: TGI (NCI-H460 lung)
17.6 µM: TGI (CAKI-1 renal)
inactive: GI50 (RPMI-8226 leukemia) 2.01 µM | GI50 (K-562 leukemia) 2.98 µM | GI50 (UACC-62 melanoma) 4.79 µM | GI50 (OVCAR-3 ovarian) 9.75 µM | GI50 (SR leukemia) 1.54 µM | GI50 (CAKI-1 renal) 4.83 µM | GI50 (RXF 393 renal) 2.4 µM | GI50 (U251 CNS) 1.96 µM | GI50 (NCI-H460 lung) 6.15 µM | GI50 (SK-MEL-2 melanoma) 2.04 µM
12.7 µM: TGI (K-562 leukemia)
26 µM: TGI (OVCAR-3 ovarian)
5.79 µM: TGI (RPMI-8226 leukemia)
5.71 µM: TGI (SK-MEL-2 melanoma)
17.5 µM: TGI (UACC-62 melanoma)
6.38 µM: TGI (SR leukemia)
